Data taken from PubChem BioAssay AID330 (DTP/NCI, 2004).
Where “and” joins values, the source holds several entries; their conditions need not be identical. Equal entries are not always repeated. Toxic doses and inconclusive results are not listed. How the source made its calls: active means survival T/C of 150% or more; inactive means T/C below 125% in these data.

System: P388 leukemia ip, CD2F1 mice, survival T/C
Assay: NCI In Vivo Anticancer Drug Screen. Data for tumor model P388 Leukemia (intraperitoneal) in CD2F1 (CDF1) mice
Conditions: endpoint: median survival time, higher = longer survival
Summary of the method: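 Mice carrying the transplanted tumor received test compound or vehicle. Survival was recorded in each group, and the value is the treated-group measurement divided by that of the vehicle-treated control group.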

[1] = dose: 60.0 mg/kg/injection, schedule: Q01DX005 (ip), vehicle: saline with Tween-80
[2] = dose: 120.0 mg/kg/injection, schedule: Q01DX005 (ip), vehicle: saline with Tween-80
[3] = dose: 240.0 mg/kg/injection, schedule: Q01DX005 (ip), vehicle: saline with Tween-80
[4] = dose: 100.0 mg/kg/injection, schedule: Q01DX001 (ip), vehicle: saline with Tween-80
[5] = dose: 50.0 mg/kg/injection, schedule: Q01DX005 (ip), vehicle: saline
[6] = dose: 100.0 mg/kg/injection, schedule: Q01DX005 (ip), vehicle: saline
[7] = dose: 50.0 mg/kg/injection, schedule: Q01DX009 (ip), vehicle: Klucel (hydroxypropylcellulose) (HPC)
[8] = dose: 100.0 mg/kg/injection, schedule: Q01DX009 (ip), vehicle: Klucel (hydroxypropylcellulose) (HPC)
[9] = dose: 50.0 mg/kg/injection, schedule: Q01DX009 (ip), vehicle: saline with Tween-80
[10] = dose: 100.0 mg/kg/injection, schedule: Q01DX009 (ip), vehicle: saline with Tween-80
[11] = dose: 50.0 mg/kg/injection, schedule: Q01DX005 (ip), vehicle: saline with Tween-80
[12] = dose: 100.0 mg/kg/injection, schedule: Q01DX005 (ip), vehicle: saline with Tween-80
[13] = dose: 200.0 mg/kg/injection, schedule: Q01DX005 (ip), vehicle: saline with Tween-80
[14] = dose: 50.0 mg/kg/injection, schedule: Q01DX009 (ip), vehicle: saline

Measured: T/C

CN1c2ccc(Br)c[c]2[Sn]2([c]3cc(Br)ccc31)[c]1cc(Br)ccc1N(C)c1ccc(Br)c[c]12
inactive: [1] 95 % of control | [2] 98 % of control | [3] 92 % of control

Cn1ccn2cnnc2c1=O
inactive: [4] 100 % of control | dose: 200.0 mg/kg/injection, schedule: Q01DX001 (ip), vehicle: saline with Tween-80 106 % of control | dose: 400.0 mg/kg/injection, schedule: Q01DX001 (ip), vehicle: saline with Tween-80 99 % of control

CCN(CC)CCC(O)c1ccc(Cl)c2ccccc12 (stereo not drawn)
inactive: [5] 106 % of control | [6] 101 % of control

C=C(OP(=O)(OC)OC)Sc1ccccc1C
inactive: dose: 0.04 mg/kg/injection, schedule: Q01DX005 (ip), vehicle: Klucel (hydroxypropylcellulose) (HPC) 105 % of control | dose: 0.09 mg/kg/injection, schedule: Q01DX005 (ip), vehicle: Klucel (hydroxypropylcellulose) (HPC) 100 % of control | dose: 0.18 mg/kg/injection, schedule: Q01DX005 (ip), vehicle: Klucel (hydroxypropylcellulose) (HPC) 106 % of control | dose: 0.37 mg/kg/injection, schedule: Q01DX005 (ip), vehicle: Klucel (hydroxypropylcellulose) (HPC) 92 % of control | dose: 0.75 mg/kg/injection, schedule: Q01DX005 (ip), vehicle: Klucel (hydroxypropylcellulose) (HPC) 100 % of control | dose: 1.5 mg/kg/injection, schedule: Q01DX005 (ip), vehicle: Klucel (hydroxypropylcellulose) (HPC) 96 % of control | dose: 12.5 mg/kg/injection, schedule: Q01DX009 (ip), vehicle: Klucel (hydroxypropylcellulose) (HPC) 100 % of control and 97 % of control | dose: 25.0 mg/kg/injection, schedule: Q01DX009 (ip), vehicle: Klucel (hydroxypropylcellulose) (HPC) 102 % of control and 116 % of control | [7] 111 % of control and 121 % of control | [8] 105 % of control and 92 % of control

O=C(O)C(Cc1ccc([N+](=O)[O-])cc1)NCc1ccco1 (stereo not drawn)
inactive: [9] 119 % of control | [10] 119 % of control

COc1cc(OC)c(C2CC(C)(O)Oc3cc4c(cc32)OCO4)c(OC)c1 (stereo not drawn)
inactive: [1] 91 % of control | [2] 86 % of control | [3] 88 % of control

O=C(N/N=C\C12CC3CC(CC(C3)C1)C2)c1ccncc1
inactive: [9] 96 % of control | [10] 90 % of control

Cn1c(N)c(C(=O)C(F)(F)F)c(=O)n(C)c1=O
inactive: [9] 99 % of control | [10] 95 % of control | dose: 200.0 mg/kg/injection, schedule: Q01DX009 (ip), vehicle: saline with Tween-80 95 % of control

CN1C(=O)C(=O)N(Cc2ccco2)C1=O
inactive: [7] 97 % of control | [8] 100 % of control | dose: 200.0 mg/kg/injection, schedule: Q01DX009 (ip), vehicle: Klucel (hydroxypropylcellulose) (HPC) 101 % of control

O=C1C=CC(=O)N1c1ccc(-c2nc3ccccc3o2)cc1
inactive: dose: 6.25 mg/kg/injection, schedule: Q01DX005 (ip), vehicle: saline with Tween-80 109 % of control | dose: 12.5 mg/kg/injection, schedule: Q01DX005 (ip), vehicle: saline with Tween-80 109 % of control | dose: 25.0 mg/kg/injection, schedule: Q01DX005 (ip), vehicle: saline with Tween-80 109 % of control and 111 % of control | [11] 111 % of control

CCn1c(-c2ccc(OC(C)=O)cc2)c(C)c2cc(OC(C)=O)ccc21
inactive: dose: 25.0 mg/kg/injection, schedule: Q01DX005 (ip), vehicle: Klucel (hydroxypropylcellulose) (HPC) 100 % of control | dose: 50.0 mg/kg/injection, schedule: Q01DX005 (ip), vehicle: Klucel (hydroxypropylcellulose) (HPC) 101 % of control and 102 % of control | dose: 100.0 mg/kg/injection, schedule: Q01DX005 (ip), vehicle: Klucel (hydroxypropylcellulose) (HPC) 95 % of control and 97 % of control | dose: 200.0 mg/kg/injection, schedule: Q01DX005 (ip), vehicle: Klucel (hydroxypropylcellulose) (HPC) 90 % of control and 96 % of control | dose: 400.0 mg/kg/injection, schedule: Q01DX005 (ip), vehicle: Klucel (hydroxypropylcellulose) (HPC) 100 % of control

CCOC(=O)C1C(=O)CN(C(=O)OC)C1C (stereo not drawn)
inactive: [11] 96 % of control | [12] 99 % of control | [13] 93 % of control

C=C1C(=O)OC2C[C@]3(C)C(CC12)C(=C)C(O)C[C@@H]3OC(=O)C(C)CC (stereo partly drawn)
inactive: [11] 105 % of control | [12] 103 % of control | [13] 111 % of control

C[Si](C)(C)CNC(=O)OCc1ccccc1
inactive: dose: 60.0 mg/kg/injection, schedule: Q01DX005 (ip), vehicle: saline 97 % of control | dose: 120.0 mg/kg/injection, schedule: Q01DX005 (ip), vehicle: saline 95 % of control | dose: 240.0 mg/kg/injection, schedule: Q01DX005 (ip), vehicle: saline 95 % of control

COc1ccc([I+]c2ccccc2)cc1
inactive: dose: 1.5 mg/kg/injection, schedule: Q01DX009 (ip), vehicle: saline 109 % of control | dose: 2.5 mg/kg/injection, schedule: Q01DX009 (ip), vehicle: saline sonified 100 % of control | dose: 3.0 mg/kg/injection, schedule: Q01DX009 (ip), vehicle: saline 109 % of control | dose: 6.0 mg/kg/injection, schedule: Q01DX009 (ip), vehicle: saline 122 % of control

CC(=O)O[C@H]1[C@@H]2c3c(ccc4c(=O)cc(-c5ccccc5)oc34)O[C@@H]2OC1(C)C
inactive: dose: 0.98 mg/kg/injection, schedule: Q01DX005 (ip), vehicle: Klucel (hydroxypropylcellulose) (HPC) 100 % of control | dose: 1.95 mg/kg/injection, schedule: Q01DX005 (ip), vehicle: Klucel (hydroxypropylcellulose) (HPC) 98 % of control | dose: 3.9 mg/kg/injection, schedule: Q01DX005 (ip), vehicle: Klucel (hydroxypropylcellulose) (HPC) 86 % of control

CCOC(=O)COc1ccc(Cc2ccc3c(c2)OCO3)cc1C
inactive: [11] 97 % of control | [12] 97 % of control | [13] 93 % of control

Cc1c(C)[n+](=O)c2ccc(C=O)cc2n1[O-]
inactive: dose: 50.0 mg/kg/injection, schedule: Q01DX009 (ip), vehicle: suspension in saline 97 % of control | dose: 100.0 mg/kg/injection, schedule: Q01DX009 (ip), vehicle: suspension in saline 94 % of control | dose: 200.0 mg/kg/injection, schedule: Q01DX009 (ip), vehicle: suspension in saline 94 % of control

COc1cc(-c2nn3c(C)c(-c4ccccc4)nc3s2)cc(OC)c1OC
inactive: [1] 101 % of control | [2] 92 % of control | [3] 102 % of control

CN(C)CCCN1c2ccccc2Sc2ccc(F)cc21
inactive: [14] 122 % of control

COc1cc2c(cc1O)CCN[C@H]2C
inactive: [5] 100 % of control | [6] 100 % of control | dose: 200.0 mg/kg/injection, schedule: Q01DX005 (ip), vehicle: saline 108 % of control

COc1cc(C(Nc2ccccn2)c2cc3c(cc2O)OCO3)cc(OC)c1OC (stereo not drawn)
inactive: [1] 100 % of control | [2] 94 % of control | [3] 94 % of control

O=C1CCCCCCCC(=O)Nc2ccc3nc4ccccc4c(c3c2)SCCCCCCCCCSc2c3ccccc3nc3ccc(cc23)N1
inactive: [1] 88 % of control | [2] 99 % of control | [3] 96 % of control

COc1ccc(CSC(=S)Nc2ccc(Cl)cc2Cl)cc1
inactive: [14] 106 % of control | dose: 100.0 mg/kg/injection, schedule: Q01DX009 (ip), vehicle: saline 105 % of control | dose: 200.0 mg/kg/injection, schedule: Q01DX009 (ip), vehicle: saline 99 % of control

C/C(=C\Cl)CO
inactive: dose: 25.0 mg/kg/injection, schedule: Q01DX009 (ip), vehicle: saline with Tween-80 111 % of control | [9] 111 % of control | [10] 94 % of control

O=C1C(Cl)=C(Cl)C(=O)C(/C=C/N2CCOCC2)=C1Cl
inactive: dose: 50.0 mg/kg/injection, schedule: Q01DX001 (ip), vehicle: saline with Tween-80 102 % of control | [4] 98 % of control
